Key:
Format in all cases: in vivo
[1] = test system: redroot pigweed (Amaranthus retroflexus, AMARE); experiment: Pre-emerge test, greenhouse herbicide activity screening; settings: pre-emerge; for phytotoxicity rating AMARE: 14 days after application, scale 0-100; for Pre-emerge Herbicidal Activity AMARE: phytotoxicity rating 0-100 at 14 days after application
Summary of the method: (§1)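 Herbicidal damage is scored 0 (none) to 100 (complete plant death) two weeks after a simulated field spray. Rates span 15–1000 g ai/ha, delivered in acetone at 187 l/ha. For post-emergence treatments, plants have 2–3 leaves and the spray carries 0.25% v/v non-ionic surfactant.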

[2] = test system: barnyardgrass (Echinochloa crus-galli, ECHCG); experiment: as above; settings: pre-emerge; for phytotoxicity rating ECHCG: 14 days after application, scale 0-100; for Pre-emerge Herbicidal Activity ECHCG: phytotoxicity rating 0-100 at 14 days after application
Summary of the method: as §1

[3] = test system: green foxtail (Setaria viridis, SETVI); experiment: as above; settings: pre-emerge; for phytotoxicity rating SETVI: 14 days after application, scale 0-100; for Pre-emerge Herbicidal Activity SETVI: phytotoxicity rating 0-100 at 14 days after application
Summary of the method: as §1

[4] = test system: ivyleaf morningglory (Ipomoea hederacea, IPOHE); experiment: as above; settings: pre-emerge; for phytotoxicity rating IPOHE: 14 days after application, scale 0-100; for Pre-emerge Herbicidal Activity IPOHE: phytotoxicity rating 0-100 at 14 days after application
Summary of the method: as §1

[5] = test system: johnsongrass (Sorghum halepense, SORHA); experiment: as above; settings: pre-emerge, 14 days after application, scale 0-100
Summary of the method: as §1

[6] = test system: lambsquarters (Chenopodium album, CHEAL); experiment: as above; settings: pre-emerge; for phytotoxicity rating CHEAL: 14 days after application, scale 0-100; for Pre-emerge Herbicidal Activity CHEAL: phytotoxicity rating 0-100 at 14 days after application
Summary of the method: as §1

[7] = test system: large crabgrass (Digitaria sanguinalis, DIGSA); experiment: as above; settings: pre-emerge; for phytotoxicity rating DIGSA: 14 days after application, scale 0-100; for Pre-emerge Herbicidal Activity DIGSA: phytotoxicity rating 0-100 at 14 days after application
Summary of the method: as §1

[8] = test system: sicklepod (Cassia obtusifolia, CASOB); experiment: as above; settings: pre-emerge; for phytotoxicity rating CASOB: 14 days after application, scale 0-100; for Pre-emerge Herbicidal Activity CASOB: phytotoxicity rating 0-100 at 14 days after application
Summary of the method: as §1

[9] = test system: velvetleaf (Abutilon theophrasti, ABUTH); experiment: as above; settings: pre-emerge; for phytotoxicity rating ABUTH: 14 days after application, scale 0-100; for Pre-emerge Herbicidal Activity ABUTH: phytotoxicity rating 0-100 at 14 days after application
Summary of the method: as §1

[10] = test system: barnyardgrass (Echinochloa crus-galli, ECHCG); experiment: Post-emerge test, greenhouse herbicide activity screening; settings: post-emerge; for ECHCG phytotoxicity rating: 14 days after application, rating scale 0-100; for Post-emerge Herbicidal Activity ECHCG: phytotoxicity rating 0-100 at 14 days after application
Summary of the method: (§2)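 Compounds in acetone were track-sprayed at 15–1000 g ai/ha: pre-emergence onto soil sown the previous day, then top-watered to incorporate and later bottom-watered; post-emergence onto 2–3 leaf plants with 0.25% v/v surfactant, bottom-watered only. Ratings on a 0–100 phytotoxicity scale were taken at day 14.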

[11] = test system: green foxtail (Setaria viridis, SETVI); experiment: as above; settings: post-emerge; for SETVI phytotoxicity rating: 14 days after application, rating scale 0-100; for Post-emerge Herbicidal Activity SETVI: phytotoxicity rating 0-100 at 14 days after application
Summary of the method: as §2

[12] = test system: ivyleaf morningglory (Ipomoea hederacea, IPOHE); experiment: as above; settings: post-emerge; for IPOHE phytotoxicity rating: 14 days after application, rating scale 0-100; for Post-emerge Herbicidal Activity IPOHE: phytotoxicity rating 0-100 at 14 days after application
Summary of the method: as §2

[13] = test system: johnsongrass (Sorghum halepense, SORHA); experiment: as above; settings: post-emerge; for SORHA phytotoxicity rating: 14 days after application, rating scale 0-100; for Post-emerge Herbicidal Activity SORHA: phytotoxicity rating 0-100 at 14 days after application
Summary of the method: as §2

[14] = test system: large crabgrass (Digitaria sanguinalis, DIGSA); experiment: as above; settings: post-emerge; for DIGSA phytotoxicity rating: 14 days after application, rating scale 0-100; for Post-emerge Herbicidal Activity DIGSA: phytotoxicity rating 0-100 at 14 days after application
Summary of the method: as §2

[15] = test system: redroot pigweed (Amaranthus retroflexus, AMARE); experiment: as above; settings: post-emerge; for AMARE phytotoxicity rating: 14 days after application, rating scale 0-100; for Post-emerge Herbicidal Activity AMARE: phytotoxicity rating 0-100 at 14 days after application
Summary of the method: as §2

[16] = test system: sicklepod (Cassia obtusifolia, CASOB); experiment: as above; settings: post-emerge; for CASOB phytotoxicity rating: 14 days after application, rating scale 0-100; for Post-emerge Herbicidal Activity CASOB: phytotoxicity rating 0-100 at 14 days after application
Summary of the method: as §2

[17] = test system: velvetleaf (Abutilon theophrasti, ABUTH); experiment: as above; settings: post-emerge; for ABUTH phytotoxicity rating: 14 days after application, rating scale 0-100; for Post-emerge Herbicidal Activity ABUTH: phytotoxicity rating 0-100 at 14 days after application
Summary of the method: as §2

[18] = test system: field corn (Zea mays L., var. Dekalb 535, CORN); experiment: Pre-emerge test, crop safety; settings: crop damage, pre-emerge, phytotoxicity rating 0-100 at 14 days after application
Summary of the method: (§3)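 Rating: 0–100 visual injury, 14 DAA. Application: acetone, 187 l/ha, 15–1000 g ai/ha, flat-fan track sprayer with nozzle 40–45 cm above soil or canopy. Post-emerge runs used 0.25% v/v surfactant on 2–3 leaf plants.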

[19] = test system: upland rice (Oryza sp., var. Tebonnet, RICE); experiment: Pre-emerge test, crop safety; settings: crop damage, pre-emerge, phytotoxicity rating 0-100 at 14 days after application
Summary of the method: as §3

[20] = test system: lambsquarters (Chenopodium album, CHEAL); experiment: Post-emerge test, greenhouse herbicide activity screening; settings: post-emerge, phytotoxicity rating 0-100 at 14 days after application
Summary of the method: as §2

[21] = test system: field corn (Zea mays L., var. Dekalb 535, CORN); experiment: Post-emerge test, crop safety; settings: post-emerge, crop damage rating 0-100 at 14 days after application
Summary of the method: as §1

[22] = test system: upland rice (Oryza sp., var. Tebonnet, RICE); experiment: Post-emerge test, crop safety; settings: post-emerge, crop damage rating 0-100 at 14 days after application
Summary of the method: as §1

Structure (SMILES): Cn1c(C(F)(F)F)cc(=O)n(-c2c(F)cc(Cl)cc2NC(=O)c2ccc3ccccc3c2)c1=O [Compound 2-145, 3-[4-chloro-6-fluoro-2-(2-naphthoylamino)phenyl]-1-methyl-6-trifluoromethyl-2,4(1H, 3H)-pyrimidinedione]
- phytotoxicity rating AMARE ([1]; 63 g ai/ha): 100
- phytotoxicity rating AMARE ([1]; 250 g ai/ha): 100
- phytotoxicity rating ECHCG ([2]; 63 g ai/ha): 35
- phytotoxicity rating ECHCG ([2]; 250 g ai/ha): 60
- phytotoxicity rating SETVI ([3]; 63 g ai/ha): 60
- phytotoxicity rating SETVI ([3]; 250 g ai/ha): 100
- phytotoxicity rating IPOHE ([4]; 63 g ai/ha): 10
- phytotoxicity rating IPOHE ([4]; 250 g ai/ha): 100
- phytotoxicity rating SORHA ([5]; 63 g ai/ha): 30
- phytotoxicity rating SORHA ([5]; 250 g ai/ha): 50
- phytotoxicity rating CHEAL ([6]; 63 g ai/ha): 100
- phytotoxicity rating CHEAL ([6]; 250 g ai/ha): 100
- phytotoxicity rating DIGSA ([7]; 63 g ai/ha): 90
- phytotoxicity rating DIGSA ([7]; 250 g ai/ha): 100
- phytotoxicity rating CASOB ([8]; 63 g ai/ha): 40
- phytotoxicity rating CASOB ([8]; 250 g ai/ha): 90
- phytotoxicity rating ABUTH ([9]; 63 g ai/ha): 90
- phytotoxicity rating ABUTH ([9]; 250 g ai/ha): 100
- ECHCG phytotoxicity rating ([10]; 63 g ai/ha): 0
- ECHCG phytotoxicity rating ([10]; 250 g ai/ha): 20
- SETVI phytotoxicity rating ([11]; 63 g ai/ha): 0
- SETVI phytotoxicity rating ([11]; 250 g ai/ha): 40
- IPOHE phytotoxicity rating ([12]; 63 g ai/ha): 100
- IPOHE phytotoxicity rating ([12]; 250 g ai/ha): 100
- SORHA phytotoxicity rating ([13]; 63 g ai/ha): 0
- SORHA phytotoxicity rating ([13]; 250 g ai/ha): 10
- DIGSA phytotoxicity rating ([14]; 63 g ai/ha): 0
- DIGSA phytotoxicity rating ([14]; 250 g ai/ha): 10
- AMARE phytotoxicity rating ([15]; 63 g ai/ha): 95
- AMARE phytotoxicity rating ([15]; 250 g ai/ha): 100
- CASOB phytotoxicity rating ([16]; 63 g ai/ha): 100
- CASOB phytotoxicity rating ([16]; 250 g ai/ha): 100
- ABUTH phytotoxicity rating ([17]; 63 g ai/ha): 100
- ABUTH phytotoxicity rating ([17]; 250 g ai/ha): 100

Structure (SMILES): Cc1nn(-c2c(Cl)cc(Cl)cc2NC(=O)c2ccc(F)cc2F)c(=O)n1C(F)F [Compound 6-13]
- Pre-emerge Herbicidal Activity AMARE ([1]; rate 63 g ai/ha): 60
- Pre-emerge Herbicidal Activity AMARE ([1]; rate 250 g ai/ha): 100
- Pre-emerge Herbicidal Activity ECHCG ([2]; rate 63 g ai/ha): 10
- Pre-emerge Herbicidal Activity ECHCG ([2]; rate 250 g ai/ha): 40
- Pre-emerge Herbicidal Activity SETVI ([3]; rate 63 g ai/ha): 80
- Pre-emerge Herbicidal Activity SETVI ([3]; rate 250 g ai/ha): 100
- Pre-emerge Herbicidal Activity IPOHE ([4]; rate 63 g ai/ha): 0
- Pre-emerge Herbicidal Activity IPOHE ([4]; rate 250 g ai/ha): 0
- Pre-emerge Herbicidal Activity CHEAL ([6]; rate 63 g ai/ha): 40
- Pre-emerge Herbicidal Activity CHEAL ([6]; rate 250 g ai/ha): 100
- Pre-emerge Herbicidal Activity DIGSA ([7]; rate 63 g ai/ha): 80
- Pre-emerge Herbicidal Activity DIGSA ([7]; rate 250 g ai/ha): 90
- Pre-emerge Herbicidal Activity CASOB ([8]; rate 63 g ai/ha): 0
- Pre-emerge Herbicidal Activity CASOB ([8]; rate 250 g ai/ha): 0
- Pre-emerge Herbicidal Activity ABUTH ([9]; rate 63 g ai/ha): 10
- Pre-emerge Herbicidal Activity ABUTH ([9]; rate 250 g ai/ha): 40
- Pre-emerge Herbicidal Activity CORN ([18]; rate 63 g ai/ha): 0
- Pre-emerge Herbicidal Activity CORN ([18]; rate 250 g ai/ha): 0
- Pre-emerge Herbicidal Activity RICE ([19]; rate 63 g ai/ha): 0
- Pre-emerge Herbicidal Activity RICE ([19]; rate 250 g ai/ha): 10
- Post-emerge Herbicidal Activity ECHCG ([10]; 63 g ai/ha): 0
- Post-emerge Herbicidal Activity ECHCG ([10]; 250 g ai/ha): 30
- Post-emerge Herbicidal Activity SETVI ([11]; 63 g ai/ha): 50
- Post-emerge Herbicidal Activity SETVI ([11]; 250 g ai/ha): 90
- Post-emerge Herbicidal Activity IPOHE ([12]; 63 g ai/ha): 50
- Post-emerge Herbicidal Activity IPOHE ([12]; 250 g ai/ha): 60
- Post-emerge Herbicidal Activity SORHA ([13]; 63 g ai/ha): 0
- Post-emerge Herbicidal Activity SORHA ([13]; 250 g ai/ha): 10
- Post-emerge Herbicidal Activity CHEAL ([20]; 63 g ai/ha): 85
- Post-emerge Herbicidal Activity CHEAL ([20]; 250 g ai/ha): 90
- Post-emerge Herbicidal Activity DIGSA ([14]; 63 g ai/ha): 20
- Post-emerge Herbicidal Activity DIGSA ([14]; 250 g ai/ha): 30
- Post-emerge Herbicidal Activity AMARE ([15]; 63 g ai/ha): 70
- Post-emerge Herbicidal Activity AMARE ([15]; 250 g ai/ha): 90
- Post-emerge Herbicidal Activity CASOB ([16]; 63 g ai/ha): 0
- Post-emerge Herbicidal Activity CASOB ([16]; 250 g ai/ha): 30
- Post-emerge Herbicidal Activity ABUTH ([17]; 63 g ai/ha): 100
- Post-emerge Herbicidal Activity ABUTH ([17]; 250 g ai/ha): 90
- Post-emerge Herbicidal Activity CORN ([21]; 63 g ai/ha): 15
- Post-emerge Herbicidal Activity CORN ([21]; 250 g ai/ha): 20
- Post-emerge Herbicidal Activity RICE ([22]; 63 g ai/ha): 10
- Post-emerge Herbicidal Activity RICE ([22]; 250 g ai/ha): 30
